# Reference: US7790706B2, “Treatment of inflammation with 5α reduced metabolites” (The University of Edinburgh, priority 2002, dated 2010)
# Entries after “also recorded” stand apart in the source; their conditions may differ.
# What was measured:
# [1] = biological target: T1, glucocorticoid receptor (GR) (Homo sapiens, UniProt P04150); test: GR activation reporter: Hela cells transfected with GR and MMTV-luciferase; type: cell-based; details: for Induction of luciferase (GR activation), Example 5 / luciferase induction in response to activation of GR / luciferase induction in cells without GR: 1 micromol/l; for luciferase induction in response to activation of GR: Hela cells transfected with GR and MMTV-luciferase; for luciferase induction in cells without GR: Hela cells transfected with luciferase but without GR
# T1 construct: expressed in transfected cells; host or cells: HeLa cells
# T1 sequence (P04150 1-777): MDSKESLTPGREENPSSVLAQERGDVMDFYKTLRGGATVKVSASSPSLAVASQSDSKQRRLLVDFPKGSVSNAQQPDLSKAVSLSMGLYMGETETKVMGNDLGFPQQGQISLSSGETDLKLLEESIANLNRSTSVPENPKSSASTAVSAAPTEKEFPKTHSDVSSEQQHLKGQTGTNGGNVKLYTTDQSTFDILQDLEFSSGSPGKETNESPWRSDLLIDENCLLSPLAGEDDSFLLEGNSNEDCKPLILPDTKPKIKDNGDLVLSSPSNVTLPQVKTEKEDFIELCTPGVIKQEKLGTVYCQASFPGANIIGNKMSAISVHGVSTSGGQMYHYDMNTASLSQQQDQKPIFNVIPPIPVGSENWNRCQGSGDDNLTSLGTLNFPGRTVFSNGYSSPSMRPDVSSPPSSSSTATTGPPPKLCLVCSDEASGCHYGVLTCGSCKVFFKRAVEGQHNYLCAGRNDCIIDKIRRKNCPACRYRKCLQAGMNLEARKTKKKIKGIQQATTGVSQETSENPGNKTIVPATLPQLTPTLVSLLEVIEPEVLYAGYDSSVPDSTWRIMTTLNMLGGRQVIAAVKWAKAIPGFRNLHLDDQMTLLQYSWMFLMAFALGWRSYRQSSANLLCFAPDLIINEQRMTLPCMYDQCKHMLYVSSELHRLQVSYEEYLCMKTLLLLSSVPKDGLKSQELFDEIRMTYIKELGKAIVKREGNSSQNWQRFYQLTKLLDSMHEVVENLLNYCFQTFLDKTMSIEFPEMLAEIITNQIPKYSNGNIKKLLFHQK
# Experimental: Comparative potency Fold induction of luciferase activity as a consequence of GR activation in Hela cells transfected with GR and luciferase under the control of a GRE and MMTV promoter (n=3). All steroids at 1 μM. Dex=dexamethasone; B=corticosterone; αDHB=5α-dihydrocorticosterone; αTHB=5α-tetrahydrocorticosterone; βDHB=5β-dihydrocorticosterone; βTHB=5β-tetrahydrocorticosterone. *indicates p<0.05 and ***p<0.001 in comparison with corticosterone. 5α-reduced metabolites of corticosterone activate glucocorticoid receptors with similar potency as corticosterone (B). […] 5β-reduced metabolites have no effect.
# Dose response. Fold induction of luciferase activity as a consequence of GR activation in Hela cells transfected with GR and luciferase under the control of a GRE and MMTV promoter (n=3).
# Corticosterone (B) and 5α-tetrahydrocorticosterone (5αTHB) or vehicle (LTR) were added to the medium (with final steroid concentrations of 1 micromol/l) of Hela cells transfected with GR and a plasmid expressing luciferase under the control of an MMTV glucocorticoid responsive promoter (grey bars) and in transfected cells with luciferase but without GR (open bars).
# HeLa cells were transfected with glucocorticoid receptor (GR) and MMTV-luciferase (LTR) as a glucocorticoid sensitive reporter. Induction of luciferase was measured in response to addition of 5α-tetrahydrocorticosterone (5α-THB) with and without corticosterone (B). Data (mean±SEM, n=6) show responses to individual steroids, then the additive responses predicted (Sum) and observed (Actual).
# HeLa cells were transfected with glucocorticoid receptor (GR) and MMTV-luciferase (LTR) as a glucocorticoid sensitive reporter. Induction of luciferase was measured in response to addition of 1 micromol/l concentrations of corticosterone (B), cortisol (F), 5alpha-dihydrocortisol (DHF5a) and 5alpha-tetrahydrocortisol (THF5a).
# [2] = test system: glucocorticoid receptors (GR) in hepatocytes; test: Binding to glucocorticoid receptor in hepatocytes (3H-dexamethasone displacement); details: 24° C., 1 h, compared with corticosterone (B)
# Experimental: Hepatocytes were incubated at 24° C. for 1 h in the presence of ^3H-dexamethasone and increasing concentrations of dexamethasone in the concentration range 0.632 nM to 200 μM. Cells were harvested and the radioactivity bound was determined by β-scintillation counting. *=p<0.001 versus B. The results are shown in FIG. 1.
# glucocorticoid receptors = biological target: T2, glucocorticoid receptors (Rattus norvegicus, UniProt P06536); details: Carlstedt-Duke et al 1977; cited from earlier work
# T2 sequence (P06536 1-795): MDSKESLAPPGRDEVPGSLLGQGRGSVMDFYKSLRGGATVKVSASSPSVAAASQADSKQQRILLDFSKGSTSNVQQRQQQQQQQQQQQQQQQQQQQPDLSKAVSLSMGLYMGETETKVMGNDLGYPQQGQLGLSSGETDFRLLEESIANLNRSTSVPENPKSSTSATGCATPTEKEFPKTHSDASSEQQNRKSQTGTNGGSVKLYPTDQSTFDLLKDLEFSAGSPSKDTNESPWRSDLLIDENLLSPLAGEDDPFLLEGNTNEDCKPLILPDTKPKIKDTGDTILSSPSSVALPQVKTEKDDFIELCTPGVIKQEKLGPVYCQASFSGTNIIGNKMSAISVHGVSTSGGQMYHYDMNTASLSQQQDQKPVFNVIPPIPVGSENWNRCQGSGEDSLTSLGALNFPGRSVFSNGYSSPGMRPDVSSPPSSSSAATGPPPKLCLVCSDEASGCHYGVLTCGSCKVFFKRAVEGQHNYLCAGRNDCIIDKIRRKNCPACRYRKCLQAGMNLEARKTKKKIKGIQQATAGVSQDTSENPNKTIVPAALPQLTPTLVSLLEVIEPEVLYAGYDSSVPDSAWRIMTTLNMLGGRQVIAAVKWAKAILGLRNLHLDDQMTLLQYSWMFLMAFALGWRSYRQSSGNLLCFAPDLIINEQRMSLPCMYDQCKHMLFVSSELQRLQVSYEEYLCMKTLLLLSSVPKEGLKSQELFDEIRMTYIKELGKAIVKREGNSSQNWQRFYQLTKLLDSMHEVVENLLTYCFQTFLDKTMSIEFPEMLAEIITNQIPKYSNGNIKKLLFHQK
# [3] = test system: gluconeogenic enzymes in liver; details: Golf et al 1984; cited from earlier work
# [4] = test system: neuronal long-term potentiation; details: Dubrovsky et al 1987; cited from earlier work
# [5] = test system: tyrosine amino transferase (TAT) mRNA in H4iiE cells; test: Induction of tyrosine amino transferase (TAT) mRNA in H4iiE cells (Northern blot); type: cell-based; details: 1 micromol/l; for Induction of TAT mRNA: Northern blot corrected for U1; for Induction of TAT mRNA in presence of RU486: plus GR antagonist RU486
# Experimental: Induction of the glucocorticoid-responsive enzyme tyrosine amino transferase (TAT) mRNA was measured by Northern blot in H4iiE cells incubated in the presence of corticosterone (B, 1 micromol/l) or 5α-tetrahydrocorticosterone (5α-THB, 1 micromol/l) or vehicle.
# ACTH levels = test: ACTH suppression in adrenalectomised rats; type: in vivo, Male lean Zucker rats; details: 5 mg/kg intraperitoneal, 2 hours after injection, immunoassay
# Experimental: Male lean Zucker rats aged ˜9 weeks were adrenalectomised. 3 weeks later, samples were obtained by tail tipping before and for 3 hours after intraperitoneal injection of either vehicle, corticosterone (B, 5 mg/kg body weight) or 5alpha-tetrahydrocorticosterone (THB5a, 5 mg/kg body weight). […] This is consistent with activation of glucocorticoid receptors at sites responsible for feedback suppression of the hypothalamic-pituitary-adrenal axis (principally pituitary, hypothalamus and hippocampus).
# mouse aortic ring = test: Angiogenesis bioassay, aortic ring embedded in matrigel; type: cell-based; details: 7 days; for number of new vessels forming (angiogenesis): B 600 nmol/l, 5alpha-THB 1000 nmol/l; for angiogenesis effect in presence of RU486: plus GR antagonist RU486
# Experimental: In this bioassay, the number of new vessels forming is measured over 7 days in a mouse aortic ring embedded in matrigel.
# [6] = HeLa cells, GR and MMTV-luciferase
# [7] = Hela cells transfected with GR and GRE/MMTV-luciferase, n=3
"Induction of luciferase (GR activation), Example 5 [1, 6]",luciferase induction in response to activation of GR [1],Compound,binding affinity for glucocorticoid receptors (GR) [2],"Fold induction of luciferase activity as a consequence of GR activation (dose response) [1, 7]",luciferase induction in cells without GR [1],Induction of TAT mRNA [5],Induction of TAT mRNA in presence of RU486 [5],ACTH levels compared with vehicle (ACTH levels),number of new vessels forming (angiogenesis) (mouse aortic ring),angiogenesis effect in presence of RU486 (mouse aortic ring),further results
induced significant GR activation,,C[C@]12CCC(=O)C[C@@H]1CC[C@@H]1[C@@H]2[C@@H](O)C[C@@]2(C)[C@H]1CC[C@]2(O)C(=O)CO [5alpha-dihydrocortisol],,,,,,,,,
,,C[C@]12CCC(=O)C[C@@H]1CC[C@@H]1[C@@H]2[C@@H](O)C[C@]2(C)[C@@H](C(=O)CO)CC[C@@H]12 [5α-dihydrocorticosterone],lower binding affinities,,,,,,,,"binding to glucocorticoid receptors, judged by displacement of bound dexamethasone (glucocorticoid receptors): does not bind to glucocorticoid receptors; activity of gluconeogenic enzymes in liver [3]: lowering activity of gluconeogenic enzymes in liver; effect on neuronal long-term potentiation [4]: inhibition of neuronal long-term potentiation"
induced significant GR activation,,C[C@]12CC[C@@H](O)C[C@@H]1CC[C@@H]1[C@@H]2[C@@H](O)C[C@@]2(C)[C@H]1CC[C@]2(O)C(=O)CO [5alpha-tetrahydrocortisol],,,,,,,,,
,activated GR,C[C@]12CC[C@@H](O)C[C@@H]1CC[C@@H]1[C@@H]2[C@@H](O)C[C@]2(C)[C@@H](C(=O)CO)CC[C@@H]12 [5α-tetrahydrocorticosterone],equivalent binding affinity,activate a glucocorticoid receptor-dependent response; also recorded: lesser effect than corticosterone,abolished in the absence of transfected receptor,induced TAT mRNA transcription,blocked,significantly suppressed ACTH levels,prevents angiogenesis,also blocked by RU486,"agonist type at GR (observed versus predicted additive luciferase response) ([1]; HeLa cells, GR and MMTV-luciferase, with and without corticosterone, n=6): full rather than partial agonist of GR; Fold induction of luciferase activity as a consequence of GR activation (comparative potency) ([1]; Hela cells transfected with GR and GRE/MMTV-luciferase, all steroids at 1 μM, n=3): more potent than 5α-dihydrocorticosterone"
induced significant GR activation,activated GR,"C[C@]12C[C@H](O)[C@H]3[C@@H](CCC4=CC(=O)CC[C@@]43C)[C@@H]1CC[C@@H]2C(=O)CO [corticosterone, reference compound]",,activate a glucocorticoid receptor-dependent response,abolished in the absence of transfected receptor,induced TAT mRNA transcription,blocked,significantly suppressed ACTH levels,inhibits angiogenesis,blocked,

Compound,"Induction of luciferase (GR activation), Example 5 [1, 6]",luciferase induction in response to activation of GR [1],binding affinity for glucocorticoid receptors (GR) [2],"Fold induction of luciferase activity as a consequence of GR activation (dose response) [1, 7]",luciferase induction in cells without GR [1],Induction of TAT mRNA [5],Induction of TAT mRNA in presence of RU486 [5],ACTH levels compared with vehicle (ACTH levels),number of new vessels forming (angiogenesis) (mouse aortic ring),angiogenesis effect in presence of RU486 (mouse aortic ring),further results
"C[C@]12CCC(=O)C=C1CC[C@@H]1[C@@H]2[C@@H](O)C[C@@]2(C)[C@H]1CC[C@]2(O)C(=O)CO [cortisol, reference compound]",induced significant GR activation,,,,,,,,,,
